Measurements: ChEMBL document CHEMBL1201862, “PubChem BioAssay data set” (2004)
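Dose response: 5 concentrations. Exposure: 48 h. Format: 96-well plates. Endpoint: linear interpolation; highest concentration if not reached. GI50 is the concentration that inhibits growth by half.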 Activity calls are given as the source filed them. Rule as the data show it: active = GI50 up to about 1.1 µM and inactive = higher.

How the values were obtained:
Assay in all cases: inhibition of tumour cell growth, NCI panel, 48 h
TK-10 = system: TK-10
NCI-H522 = system: NCI-H522
SF-268 = system: SF-268
U-251 = system: U-251
SK-MEL-5 = system: SK-MEL-5
HCC 2998 = system: HCC 2998
OVCAR-5 = system: OVCAR-5
SK-OV-3 = system: SK-OV-3
OVCAR-3 = system: OVCAR-3
IGROV-1 = system: IGROV-1
HOP-62 = system: HOP-62
SW-620 = system: SW-620
HCT-116 = system: HCT-116
EKVX = system: EKVX
HT-29 = system: HT-29
COLO 205 = system: COLO 205
SNB-75 = system: SNB-75
DLD-1 = system: DLD-1
DMS-273 = system: DMS-273
SNB-19 = system: SNB-19
ACHN = system: ACHN
MOLT-4 = system: MOLT-4
NCI-H23 = system: NCI-H23
SF-295 = system: SF-295
HCT-15 = system: HCT-15
DMS-114 = system: DMS-114
Malme-3M = system: Malme-3M
K562 = system: K562
KM12 = system: KM12
KM-20L2 = system: KM-20L2
A498 = system: A498
SF-539 = system: SF-539
UACC-257 = system: UACC-257
OVCAR-8 = system: OVCAR-8
CAKI-1 = system: CAKI-1
SK-MEL-2 = system: SK-MEL-2
SNB-78 = system: SNB-78
UACC-62 = system: UACC-62
UO-31 = system: UO-31
NCI-H460 = system: NCI-H460
SN12C = system: SN12C
A549 = system: A549
RPMI-8226 = system: RPMI-8226
XF498 = system: XF498
M19-MEL = system: M19-MEL
M14 = system: M14
SK-MEL-28 = system: SK-MEL-28
OVCAR-4 = system: OVCAR-4
RXF 393 = system: RXF 393
LXFL 529 = system: LXFL 529
LOX IMVI = system: LOX IMVI
HL-60 = system: HL-60
HOP-92 = system: HOP-92
HOP-18 = system: HOP-18
NCI-H226 = system: NCI-H226
SR = system: SR
786-0 = system: 786-0

## CN1CCC(C(=O)NNc2ccccc2)CC1
TK-10
  GI50: 18.3 µM (inactive)
NCI-H522
  GI50: 3.27 µM (inactive)
SF-268
  GI50: 7.05 µM (inactive)
U-251
  GI50: > 17.7 µM (inactive)
SK-MEL-5
  GI50: 14.4 µM (inactive)
HCC 2998
  GI50: 5.22 µM (inactive)
OVCAR-5
  GI50: 8.3 µM (inactive)
SK-OV-3
  GI50: > 100 µM (inactive)
OVCAR-3
  GI50: 16.9 µM (inactive)
IGROV-1
  GI50: > 36.6 µM (inactive)
HOP-62
  GI50: 14.3 µM (inactive)
SW-620
  GI50: 7.98 µM (inactive)
HCT-116
  GI50: > 43.4 µM (inactive)
EKVX
  GI50: 34.5 µM (inactive)
HT-29
  GI50: 7.53 µM (inactive)
COLO 205
  GI50: 3.08 µM (inactive)
SNB-75
  GI50: > 80.2 µM (inactive)
DLD-1
  GI50: 12.8 µM (inactive)
DMS-273
  GI50: 3.1 µM (inactive)
SNB-19
  GI50: > 100 µM (inactive)
ACHN
  GI50: 2.66 µM (inactive)
MOLT-4
  GI50: 1.23 µM (inactive)
NCI-H23
  GI50: 42.4 µM (inactive)
SF-295
  GI50: 2.12 µM (inactive)
HCT-15
  GI50: 1.61 µM
DMS-114
  GI50: 9.31 µM (inactive)
Malme-3M
  GI50: 22.4 µM (inactive)
K562
  GI50: 0.931 µM (active)
KM12
  GI50: 3.15 µM (inactive)
KM-20L2
  GI50: 1.69 µM (inactive)
A498
  GI50: > 100 µM (inactive)
SF-539
  GI50: 7.87 µM (inactive)
UACC-257
  GI50: 18.6 µM (inactive)
OVCAR-8
  GI50: 9.73 µM (inactive)
CAKI-1
  GI50: > 20.6 µM (inactive)
SK-MEL-2
  GI50: 9.02 µM (inactive)
SNB-78
  GI50: > 100 µM (inactive)
UACC-62
  GI50: 2.48 µM (inactive)
UO-31
  GI50: 3.16 µM (inactive)
NCI-H460
  GI50: 5.62 µM (inactive)
SN12C
  GI50: > 100 µM (inactive)
A549
  GI50: 12.2 µM (inactive)
RPMI-8226
  GI50: 24.8 µM (inactive)
XF498
  GI50: > 100 µM (inactive)
M19-MEL
  GI50: 13.9 µM (inactive)
M14
  GI50: 1.5 µM (inactive)
SK-MEL-28
  GI50: 17.1 µM (inactive)
OVCAR-4
  GI50: 13.3 µM (inactive)
RXF 393
  GI50: > 100 µM (inactive)
LXFL 529
  GI50: 0.9 µM (active)
LOX IMVI
  GI50: 0.923 µM (active)
HL-60
  GI50: 2.65 µM (inactive)
HOP-92
  GI50: > 100 µM (inactive)
HOP-18
  GI50: > 61.5 µM (inactive)
NCI-H226
  GI50: > 100 µM (inactive)
SR
  GI50: 7.43 µM (inactive)

## CSC1NC=Nc2c1sc(=S)n2-c1ccccc1 (stereo unspecified)
TK-10
  GI50: > 100 µM (inactive)
NCI-H522
  GI50: > 100 µM (inactive)
SF-268
  GI50: > 100 µM (inactive)
U-251
  GI50: > 100 µM (inactive)
SK-MEL-5
  GI50: > 100 µM (inactive)
HCC 2998
  GI50: > 100 µM (inactive)
OVCAR-5
  GI50: > 100 µM (inactive)
SK-OV-3
  GI50: > 100 µM (inactive)
OVCAR-3
  GI50: 54.1 µM (inactive)
IGROV-1
  GI50: > 100 µM (inactive)
HOP-62
  GI50: 24.2 µM (inactive)
SW-620
  GI50: > 100 µM (inactive)
HCT-116
  GI50: > 100 µM (inactive)
EKVX
  GI50: > 100 µM (inactive)
HT-29
  GI50: > 100 µM (inactive)
COLO 205
  GI50: > 100 µM (inactive)
SNB-75
  GI50: 28.4 µM (inactive)
DLD-1
  GI50: > 100 µM (inactive)
DMS-273
  GI50: > 100 µM (inactive)
SNB-19
  GI50: > 100 µM (inactive)
ACHN
  GI50: > 100 µM (inactive)
MOLT-4
  GI50: > 100 µM (inactive)
NCI-H23
  GI50: > 100 µM (inactive)
SF-295
  GI50: > 100 µM (inactive)
HCT-15
  GI50: > 100 µM
DMS-114
  GI50: > 100 µM (inactive)
Malme-3M
  GI50: > 100 µM (inactive)
KM12
  GI50: > 100 µM (inactive)
KM-20L2
  GI50: > 100 µM (inactive)
A498
  GI50: > 100 µM (inactive)
SF-539
  GI50: > 100 µM (inactive)
UACC-257
  GI50: > 100 µM (inactive)
OVCAR-8
  GI50: > 100 µM (inactive)
CAKI-1
  GI50: > 100 µM (inactive)
SK-MEL-2
  GI50: > 100 µM (inactive)
SNB-78
  GI50: 43.5 µM (inactive)
UACC-62
  GI50: > 100 µM (inactive)
UO-31
  GI50: > 100 µM (inactive)
NCI-H460
  GI50: > 100 µM (inactive)
SN12C
  GI50: > 100 µM (inactive)
A549
  GI50: > 100 µM (inactive)
RPMI-8226
  GI50: > 100 µM (inactive)
XF498
  GI50: > 100 µM (inactive)
M19-MEL
  GI50: > 100 µM (inactive)
M14
  GI50: > 100 µM (inactive)
SK-MEL-28
  GI50: > 100 µM (inactive)
OVCAR-4
  GI50: 89.1 µM (inactive)
RXF 393
  GI50: > 100 µM (inactive)
LXFL 529
  GI50: > 100 µM (inactive)
LOX IMVI
  GI50: > 100 µM (inactive)
HOP-92
  GI50: 83.8 µM (inactive)
HOP-18
  GI50: > 100 µM (inactive)
NCI-H226
  GI50: > 100 µM (inactive)
786-0
  GI50: > 100 µM (inactive)
SR
  GI50: > 100 µM (inactive)
